Data on one compound can be found in PMC5218480 (PLoS ONE, 2017).

The assay concerns MV-4-11 cells. As to the kind of experiment: Gene expression microarray analysis (Affymetrix PrimeView) and GSEA. Format: cell-based, human. Set-up: RFU PODN (11730768_x_at) / Fold change /veh PODN (11730768_x_at) / RFU LINC00158 (11744669_a_at) / Fold change /veh LINC00158 (11744669_a_at) / RFU DUSP10 (11751237_a_at) / Fold change /veh DUSP10 (11751237_a_at) / RFU ID3 (11757404_x_at) / Fold change /veh ID3 (11757404_x_at) / RFU PLEKHG5 (11737974_s_at) / Fold change /veh PLEKHG5 (11737974_s_at) / RFU LRRC4B (11730491_at) / Fold change /veh LRRC4B (11730491_at) / RFU GIMAP4 (11747438_a_at) / Fold change /veh GIMAP4 (11747438_a_at) / RFU KRT8 (11758183_x_at) / Fold change /veh KRT8 (11758183_x_at) / RFU CNN1 (11734310_a_at) / Fold change /veh CNN1 (11734310_a_at) / RFU VPS37D (11726825_at) / Fold change /veh VPS37D (11726825_at) / RFU C10orf10 (11716522_x_at) / Fold change /veh C10orf10 (11716522_x_at) / RFU KIR2DL2 /// KIR2DL4 /// KIR2DL5A /// KIR2DL5B /// KIR2DS1 /// KIR2DS2 /// KIR2DS3 /// KIR2DS4 /// KIR3DL3 /// KIR3DL3 /// KIR3DS1 (11738374_at) / Fold change /veh KIR2DL2 /// KIR2DL4 /// KIR2DL5A /// KIR2DL5B /// KIR2DS1 /// KIR2DS2 /// KIR2DS3 /// KIR2DS4 /// KIR3DL3 /// KIR3DL3 /// KIR3DS1 (11738374_at) / RFU C1QL1 (11718748_at) / Fold change /veh C1QL1 (11718748_at) / RFU TMPRSS4 (11747572_a_at) / Fold change /veh TMPRSS4 (11747572_a_at) / RFU HAMP (11756126_x_at) / Fold change /veh HAMP (11756126_x_at) / RFU RNFT2 (11725882_a_at) / Fold change /veh RNFT2 (11725882_a_at) / RFU NR4A2 (11747474_a_at) / Fold change /veh NR4A2 (11747474_a_at) / RFU ABCC12 (11746883_a_at) / Fold change /veh ABCC12 (11746883_a_at) / RFU TMEM136 (11760407_x_at) / Fold change /veh TMEM136 (11760407_x_at) / RFU CLDN22 /// WWC2 (11732394_at) / Fold change /veh CLDN22 /// WWC2 (11732394_at) / RFU HLA-DPB1 (11760878_x_at) / Fold change /veh HLA-DPB1 (11760878_x_at) / RFU SPINT1 (11716480_a_at) / Fold change /veh SPINT1 (11716480_a_at) / RFU GAP43 (11754022_s_at) / Fold change /veh GAP43 (11754022_s_at) / RFU A4GNT (11735810_at) / Fold change /veh A4GNT (11735810_at) / RFU PRB3 (11715151_x_at) / Fold change /veh PRB3 (11715151_x_at) / RFU TUBB4B (11761932_at) / Fold change /veh TUBB4B (11761932_at) / RFU CAPN14 (11732068_a_at) / Fold change /veh CAPN14 (11732068_a_at) / RFU TMCC2 (11721928_a_at) / Fold change /veh TMCC2 (11721928_a_at) / RFU IRGQ (11745062_a_at) / Fold change /veh IRGQ (11745062_a_at) / RFU FAM174B (11720279_a_at) / Fold change /veh FAM174B (11720279_a_at) / RFU TMPRSS4 (11748680_a_at) / Fold change /veh TMPRSS4 (11748680_a_at) / RFU FAM212B (11763350_a_at) / Fold change /veh FAM212B (11763350_a_at) / RFU PLEKHG5 (11743358_a_at) / Fold change /veh PLEKHG5 (11743358_a_at) / RFU ZSCAN30 (11745921_a_at) / Fold change /veh ZSCAN30 (11745921_a_at) / RFU CMKLR1 (11741424_a_at) / Fold change /veh CMKLR1 (11741424_a_at) / RFU LOC101060620 /// MAPK8IP1 (11723275_at) / Fold change /veh LOC101060620 /// MAPK8IP1 (11723275_at) / RFU SPTSSB (11747773_x_at) / Fold change /veh SPTSSB (11747773_x_at) / RFU PRSS12 (11739890_at) / Fold change /veh PRSS12 (11739890_at) / RFU BIN1 (11741810_x_at) / Fold change /veh BIN1 (11741810_x_at) / RFU WNT11 (11732464_a_at) / Fold change /veh WNT11 (11732464_a_at) / RFU C10orf10 (11716521_a_at) / Fold change /veh C10orf10 (11716521_a_at) / RFU C5orf56 (11738089_at) / Fold change /veh C5orf56 (11738089_at) / RFU CYB561 (11721691_x_at) / Fold change /veh CYB561 (11721691_x_at) / RFU ANKRD19P (11752326_a_at) / Fold change /veh ANKRD19P (11752326_a_at) / RFU OR2T12 /// OR2T33 /// OR2T8 (11738714_s_at) / Fold change /veh OR2T12 /// OR2T33 /// OR2T8 (11738714_s_at) / RFU VCAN (11748164_a_at) / Fold change /veh VCAN (11748164_a_at) / RFU JSRP1 (11732532_at) / Fold change /veh JSRP1 (11732532_at) / RFU KRTAP10-11 (11738290_x_at) / Fold change /veh KRTAP10-11 (11738290_x_at) / RFU MYO3A (11730013_a_at) / Fold change /veh MYO3A (11730013_a_at) / RFU EBF3 (11725865_a_at) / Fold change /veh EBF3 (11725865_a_at) / RFU CAMK2N1 (11719241_x_at) / Fold change /veh CAMK2N1 (11719241_x_at) / RFU C5orf56 (11738088_a_at) / Fold change /veh C5orf56 (11738088_a_at) / RFU OLFML3 (11715873_a_at) / Fold change /veh OLFML3 (11715873_a_at) / RFU LOC100653217 /// NTM (11731650_a_at) / Fold change /veh LOC100653217 /// NTM (11731650_a_at) / RFU MAPK11 (11762145_a_at) / Fold change /veh MAPK11 (11762145_a_at) / RFU FIZ1 (11724087_x_at) / Fold change /veh FIZ1 (11724087_x_at) / RFU OASL (11726364_x_at) / Fold change /veh OASL (11726364_x_at) / RFU SOX15 (11748057_x_at) / Fold change /veh SOX15 (11748057_x_at) / RFU CD79A (11719716_a_at) / Fold change /veh CD79A (11719716_a_at) / RFU HIST1H1D (11736915_at) / Fold change /veh HIST1H1D (11736915_at) / RFU CASKIN2 (11723855_a_at) / Fold change /veh CASKIN2 (11723855_a_at) / RFU LOC730098 (11760151_x_at) / Fold change /veh LOC730098 (11760151_x_at) / RFU OR4N2 (11742367_at) / Fold change /veh OR4N2 (11742367_at) / RFU PRRT2 (11749266_a_at) / Fold change /veh PRRT2 (11749266_a_at) / RFU SNX32 (11753110_a_at) / Fold change /veh SNX32 (11753110_a_at) / RFU CDHR5 (11726645_a_at) / Fold change /veh CDHR5 (11726645_a_at) / RFU RCAN1 (11760418_a_at) / Fold change /veh RCAN1 (11760418_a_at) / RFU FAM167A (11723789_a_at) / Fold change /veh FAM167A (11723789_a_at) / RFU FAM26E (11764081_at) / Fold change /veh FAM26E (11764081_at) / RFU ISYNA1 (11749810_s_at) / Fold change /veh ISYNA1 (11749810_s_at) / RFU ACY1 (11761880_at) / Fold change /veh ACY1 (11761880_at) / RFU 11764098_at / Fold change /veh 11764098_at / RFU SAMD14 (11745864_x_at) / Fold change /veh SAMD14 (11745864_x_at) / RFU NPB (11741838_a_at) / Fold change /veh NPB (11741838_a_at) / RFU TMPRSS6 (11731388_a_at) / Fold change /veh TMPRSS6 (11731388_a_at) / RFU KRTAP10-2 (11738614_at) / Fold change /veh KRTAP10-2 (11738614_at) / RFU ARHGAP8 /// PRR5-ARHGAP8 (11727945_x_at) / Fold change /veh ARHGAP8 /// PRR5-ARHGAP8 (11727945_x_at) / RFU KRTAP5-7 /// NADSYN1 (11734609_at) / Fold change /veh KRTAP5-7 /// NADSYN1 (11734609_at) / RFU RASL12 (11751679_a_at) / Fold change /veh RASL12 (11751679_a_at) / RFU CDKN2B (11736163_a_at) / Fold change /veh CDKN2B (11736163_a_at) / RFU PRF1 (11729649_at) / Fold change /veh PRF1 (11729649_at) / RFU, ZNF638 /// ZNF638-IT1 / Fold change vs veh, ZNF638 /// ZNF638-IT1 / RFU, PANK3 / Fold change vs veh, PANK3 / RFU, SH3YL1 / Fold change vs veh, SH3YL1 / RFU, ZEB2 / Fold change vs veh, ZEB2 / RFU, NRIP1 / Fold change vs veh, NRIP1 / RFU, PTTG1IP / Fold change vs veh, PTTG1IP / RFU, CAPN2 / Fold change vs veh, CAPN2 / RFU, MED14 / Fold change vs veh, MED14 / RFU, SNORA58 / Fold change vs veh, SNORA58 / RFU, C1orf63 / Fold change vs veh, C1orf63 / RFU, LRRFIP1 / Fold change vs veh, LRRFIP1 / RFU, NDUFAF7 / Fold change vs veh, NDUFAF7 / RFU, SLC12A2 / Fold change vs veh, SLC12A2 / RFU, IBTK / Fold change vs veh, IBTK / RFU, ESF1 / Fold change vs veh, ESF1 / Fold change vs veh, TMEM50B / RFU, TAOK1 / Fold change vs veh, TAOK1 / RFU, ACBD3 / Fold change vs veh, ACBD3 / RFU, TMA16 / Fold change vs veh, TMA16 / RFU, RWDD3 / Fold change vs veh, RWDD3 / RFU, BCAT1 / Fold change vs veh, BCAT1 / RFU, EDEM3 / Fold change vs veh, EDEM3 / RFU, TMEM33 / Fold change vs veh, TMEM33 / RFU, WDR75 / Fold change vs veh, WDR75 / RFU, AHCTF1 / Fold change vs veh, AHCTF1 / RFU, TFRC / Fold change vs veh, TFRC / RFU, ZDHHC17 / Fold change vs veh, ZDHHC17 / RFU, NOM1 / Fold change vs veh, NOM1 / RFU, ARL8B / Fold change vs veh, ARL8B / RFU, ZBTB11 / Fold change vs veh, ZBTB11 / RFU, TAMM41 / Fold change vs veh, TAMM41 / RFU, KIAA1704 /// LOC100996395 / Fold change vs veh, KIAA1704 /// LOC100996395 / RFU, ING1 / Fold change vs veh, ING1 / RFU, TRMT61B / Fold change vs veh, TRMT61B / RFU, FUBP3 / Fold change vs veh, FUBP3 / RFU, TP53 / Fold change vs veh, TP53 / RFU, TNKS2 / Fold change vs veh, TNKS2 / RFU, ZFP14 / Fold change vs veh, ZFP14 / RFU, ACTR2 / Fold change vs veh, ACTR2 / RFU, PPP3R1 / Fold change vs veh, PPP3R1 / RFU, PIK3R1 / Fold change vs veh, PIK3R1 / RFU, HNRNPA1 / Fold change vs veh, HNRNPA1 / RFU, RNF170 / Fold change vs veh, RNF170 / RFU, ZNF28 / Fold change vs veh, ZNF28 / RFU, RNGTT / Fold change vs veh, RNGTT / RFU, OGT / Fold change vs veh, OGT / RFU, BRD1 / Fold change vs veh, BRD1 / RFU, MARS / Fold change vs veh, MARS / RFU, ZNF655 / Fold change vs veh, ZNF655 / RFU, FAHD1 / Fold change vs veh, FAHD1 / RFU, BDP1 / Fold change vs veh, BDP1 / RFU, LRRCC1 / Fold change vs veh, LRRCC1 / RFU, ARID1A / Fold change vs veh, ARID1A / RFU, ZNF146 / Fold change vs veh, ZNF146 / RFU, ZNF330 / Fold change vs veh, ZNF330 / RFU, GPN3 / Fold change vs veh, GPN3 / RFU, C9orf123 / Fold change vs veh, C9orf123 / RFU, N4BP2L2 / Fold change vs veh, N4BP2L2 / RFU, ARFIP1 / Fold change vs veh, ARFIP1 / RFU, FAM179B / Fold change vs veh, FAM179B / RFU, BCL10 / Fold change vs veh, BCL10 / RFU, UHRF1BP1L / Fold change vs veh, UHRF1BP1L / RFU, BET1 / Fold change vs veh, BET1 / RFU, CNOT2 / Fold change vs veh, CNOT2 / RFU, ZNF268 / Fold change vs veh, ZNF268 / Fold change vs veh, ZNF507 / RFU, DGCR2 / Fold change vs veh, DGCR2 / RFU, WDSUB1 / Fold change vs veh, WDSUB1 / Fold change vs veh, HSP90B1 /// MIR3652 / RFU, ADSS / Fold change vs veh, ADSS / RFU, GK / Fold change vs veh, GK / RFU, ZNF148 / Fold change vs veh, ZNF148 / RFU, TAF9 / Fold change vs veh, TAF9 / RFU, SLC1A5 / Fold change vs veh, SLC1A5 / RFU, SLMO2 / Fold change vs veh, SLMO2 / RFU, ABCC4 / Fold change vs veh, ABCC4 / RFU, LOC101060439 /// RAP1B / Fold change vs veh, LOC101060439 /// RAP1B / RFU, RFX7 / Fold change vs veh, RFX7 / RFU, GTPBP10 / Fold change vs veh, GTPBP10 / RFU, CNEP1R1 / Fold change vs veh, CNEP1R1 / RFU, BIVM-ERCC5 /// ERCC5 / Fold change vs veh, BIVM-ERCC5 /// ERCC5 / RFU, ILF3 / Fold change vs veh, ILF3 / RFU 11762660_at / Fold change /veh 11762660_at / RFU VCAN (11757783_s_at) / Fold change /veh VCAN (11757783_s_at) / RFU DDX43 (11728927_at) / Fold change /veh DDX43 (11728927_at) / RFU KRT8 (11758188_x_at) / Fold change /veh KRT8 (11758188_x_at) / RFU NKD1 (11759106_at) / Fold change /veh NKD1 (11759106_at) / RFU SRD5A1 (11742802_a_at) / Fold change /veh SRD5A1 (11742802_a_at) / RFU TPSAB1 /// TPSB2 (11721975_s_at) / Fold change /veh TPSAB1 /// TPSB2 (11721975_s_at) / RFU GSTM3 (11746129_a_at) / Fold change /veh GSTM3 (11746129_a_at) / RFU IL23R (11737362_x_at) / Fold change /veh IL23R (11737362_x_at) / RFU TMEM51 (11727254_a_at) / Fold change /veh TMEM51 (11727254_a_at) / RFU PIWIL2 (11732686_x_at) / Fold change /veh PIWIL2 (11732686_x_at) / RFU ORM1 (11744905_x_at) / Fold change /veh ORM1 (11744905_x_at) / RFU CCDC152 (11743942_at) / Fold change /veh CCDC152 (11743942_at) / RFU ECM1 (11717891_a_at) / Fold change /veh ECM1 (11717891_a_at) / RFU IL23R (11748794_a_at) / Fold change /veh IL23R (11748794_a_at) / RFU TNFAIP8L3 (11732012_x_at) / Fold change /veh TNFAIP8L3 (11732012_x_at) / RFU MBOAT4 (11741988_at) / Fold change /veh MBOAT4 (11741988_at) / RFU 11764193_at / Fold change /veh 11764193_at / RFU TMEM53 (11763286_at) / Fold change /veh TMEM53 (11763286_at) / RFU MAGEB2 (11727129_at) / Fold change /veh MAGEB2 (11727129_at) / RFU TMEM200A (11744735_a_at) / Fold change /veh TMEM200A (11744735_a_at) / RFU CCDC152 (11751479_a_at) / Fold change /veh CCDC152 (11751479_a_at) / RFU FAM211A (11726209_a_at) / Fold change /veh FAM211A (11726209_a_at) / RFU RGS16 (11746705_a_at) / Fold change /veh RGS16 (11746705_a_at) / RFU VCAN (11755009_s_at) / Fold change /veh VCAN (11755009_s_at) / RFU RHOB (11743442_s_at) / Fold change /veh RHOB (11743442_s_at) / RFU RGS16 (11720943_a_at) / Fold change /veh RGS16 (11720943_a_at) / RFU RGS16 (11720944_at) / Fold change /veh RGS16 (11720944_at) / RFU, VPS4B / Fold change vs veh, VPS4B / RFU, CREB1 / Fold change vs veh, CREB1 / RFU, DNAJC13 / Fold change vs veh, DNAJC13 / RFU, GNAQ / Fold change vs veh, GNAQ / RFU, CDK5R1 / Fold change vs veh, CDK5R1 / RFU, ZRANB3 / Fold change vs veh, ZRANB3 / RFU, CUL4A / Fold change vs veh, CUL4A / RFU, CCNY / Fold change vs veh, CCNY / RFU, UFL1 / Fold change vs veh, UFL1 / RFU, COG3 / Fold change vs veh, COG3 / RFU, DIAPH2 / Fold change vs veh, DIAPH2 / RFU, SKA2 / Fold change vs veh, SKA2 / RFU, AFF3 / Fold change vs veh, AFF3 / RFU, LMF1 / Fold change vs veh, LMF1 / RFU, IPO11 / Fold change vs veh, IPO11 / RFU, DFFB / Fold change vs veh, DFFB / RFU, FOXP1 / Fold change vs veh, FOXP1 / RFU, CARD8 / Fold change vs veh, CARD8 / RFU, STRN3 / Fold change vs veh, STRN3 / RFU, ADK / Fold change vs veh, ADK / RFU, RASSF2 / Fold change vs veh, RASSF2 / RFU, WIPF1 / Fold change vs veh, WIPF1 / RFU, LARP1B / Fold change vs veh, LARP1B / RFU, RASA1 / Fold change vs veh, RASA1 / RFU, RB1 / Fold change vs veh, RB1 / RFU, PPFIA1 / Fold change vs veh, PPFIA1 / RFU, MAT2A / Fold change vs veh, MAT2A / RFU, CCT5 / Fold change vs veh, CCT5 / RFU, WDR92 / Fold change vs veh, WDR92 / RFU, CUX1 / Fold change vs veh, CUX1 / RFU, TTC7A / Fold change vs veh, TTC7A / RFU, TMEM135 / Fold change vs veh, TMEM135 / RFU, DEPTOR / Fold change vs veh, DEPTOR / RFU, CPM / Fold change vs veh, CPM / RFU, DNAJB6 / Fold change vs veh, DNAJB6 / RFU, CACNA2D3 / Fold change vs veh, CACNA2D3 / RFU, DTX4 / Fold change vs veh, DTX4 / RFU, TFCP2 / Fold change vs veh, TFCP2 / RFU, GMCL1 /// GMCL1P1 / Fold change vs veh, GMCL1 /// GMCL1P1 / RFU, AEBP2 / Fold change vs veh, AEBP2 / RFU, SNHG1 /// SNORD22 /// SNORD25 /// SNORD26 /// SNORD27 /// SNORD28 /// SNORD29 /// SNORD31 / Fold change vs veh, SNHG1 /// SNORD22 /// SNORD25 /// SNORD26 /// SNORD27 /// SNORD28 /// SNORD29 /// SNORD31 / Fold change (Aza/veh), C12orf56 (ProbeSet 11735607_a_at) / Fold change (ACY-1035/veh), C12orf56 (ProbeSet 11735607_a_at) / Fold change (Aza/veh), FGFR1OP (ProbeSet 11751329_s_at) / Fold change (ACY-1035/veh), FGFR1OP (ProbeSet 11751329_s_at) / Fold change (Aza/veh), VPS36 (ProbeSet 11739960_a_at) / Fold change (ACY-1035/veh), VPS36 (ProbeSet 11739960_a_at) / RFU SYPL1 (11715823_x_at) / Fold change /veh SYPL1 (11715823_x_at) / RFU IGFBP7 (11715501_s_at) / Fold change /veh IGFBP7 (11715501_s_at) / RFU REEP3 (11722064_at) / Fold change /veh REEP3 (11722064_at) / RFU IGLL1 (11728026_x_at) / Fold change /veh IGLL1 (11728026_x_at): dose or concentration left out as unconfirmed. As to conditions: ProbeSet 11758170_s_at; LIST D.

On to `Nc1ncn([C@@H]2O[C@H](CO)[C@@H](O)[C@H]2O)c(=O)n1` [azacitidine], for which the “Fold change vs veh, DIAPH2” value was determined as 0.72.
